According to patent US9045563B2, “CXC chemokine receptor 4 (CXCR4) antagonistic polypeptide” (priority 2007, dated 2015):
Ends that are not written are not given here.

Experiments:
[1] = system: X4 tropic HIV-1 variants NL4-3, P51-Sc, P59-S/27 and P34-S; conditions: TZM-bl cells
Procedure: (§1) 5000 TZM-bl cells were seeded in 100 μl of DMEM (10% FCS, 100 U/ml of penicillin G and 100 μg/ml of streptomycin sulfate). ALB408-423 was dissolved in PBS (10 mg/ml). One day later, 20 μl serial dilutions of ALB408-423 in PBS were added to cells and cells were subsequently infected with 0.5 ng of p24 antigen HIV-1 in a total volume of 200 μl. HIV-1 molecular clones differing in coreceptor tropism were used and generated as described (Papkalla et al., J. Virol. 76: 8455-9, 2002).
(§2) FIG. 3: Chemically synthesized ALB408-423 specifically blocks X4 tropic HIV-1 infection. TZM-bl cells containing indicated dilutions of peptide were infected with HIV-1 variants differing in their coreceptor tropism. 3 days later Gal Screen assay was used to measure infection rates. […] B) Infection rates in the presence of 500 μg/ml ALB408-423 showing that the peptide specifically blocks X4 but not R5 tropic HIV-1 infection. Data shown are mean values±standard deviation derived from triplicate infections relative to PBS containing cells (100% infection).
(§3) After 3 days, infection was detected using GalScreen assay (TROPIX) (example 1). […] In contrast, CCR5 tropic HIV-1 variants were not inhibited even in the presence of very high doses of ALB408-423 (500 μg/ml) (FIG. 3B). Due to the specific inhibition of the infection caused by X4-tropic HIV-1 variants, it is to be assumed that ALB408-423 interacts with the chemokine receptor CXCR4.
(§4) Virus stocks were first titrated on TZM-bl cells. Then TZM-bl cells containing 100 μM of peptides were infected with infectivity normalized amounts of X4, dualtropic (X4/R5) or R5 tropic HIV-1.
(§5) FIG. 10. ALB408-423 and truncated ALB derivatives specifically block X4 tropic HIV-1 infection. TZM-bl cells either containing PBS or 100 μM of indicated peptides were infected with normalized infectivities of X4, dualtropic or R5 tropic HIV-1 clones. Infection rates were measured 2 days post infection using the GalScreen assay. Shown are mean values (% of PBS treated control)±standard deviations derived from triplicate measurements.

[2] = system: dual tropic (CXCR4 and CCR5 using) variant 92ht593.1; experiment: Infection of TZM-bl cells by dual tropic HIV-1, GalScreen; assay type: cell-based
Procedure: as §1, §2, §3, §4, §5

X4 tropic HIV-1 NL4-3 = experiment: X4 tropic HIV-1 infection and replication in PBMC, p24 antigen ELISA; assay type: cell-based; conditions: 100 μM peptide, day 6 post infection
Procedure: To analyze the effect of ALB408-423 and derivatives thereof in relevant primary cells, peripheral blood mononuclear cells were isolated from Buffy coat derived from the DRK-Blutspendedienst Baden-Württemberg-Hessen using Ficoll density centrifugation. 1×10^6 PBMC per ml were stimulated with 1 μg/ml phytohemagglutinine (PHA, Oxoid, #3085280) and 10 ng/ml Interleukin 2 (IL-2, Strathmann, #9511192) for three days. Thereafter cells were pelleted and resuspended in IL-2 containing medium. 1.5×10^5 PBMC (250 μl) were seeded in 96 well dishes, peptides were added and cells were infected with […] p24 antigen of X4 tropic HIV-1 NL4-3. Supernatants containing progeny virus were taken at day 1, 3 and 6 post infection. Virus production was measured by p24 antigen ELISA (SAIC-Frederick, Inc [AIDS & Cancer virus program]). […] In the presence of 20 μM peptides virus replication was severely impaired.
FIG. 11. ALB408-423 and derivatives inhibit X4 tropic HIV-1 infection of peripheral blood mononuclear cells (PBMC). Cells were incubated with indicated concentrations of ALB408-423 or truncated variants and infected with X4 tropic HIV-1. Supernatants obtained after 6 days were analyzed by p24 ELISA. Shown are mean p24 antigen values (ng/ml) derived from triplicate infections±standard deviation.

[3] = system: Jurkat T cells expressing CXCR4; experiment: CXCL12 mediated migration of Jurkat T cells, transwell; assay type: cell-based; conditions: 360 μg/ml, 2 h
Procedure: CXCL12-CXCR4 signaling plays a crucial role in several diseases such as HIV/AIDS, cancer, leukemia and arthritis. CXCL12 expressing organs, tissues or cells can attract CXCR4 expressing tumor cells and allow metastasis. To investigate whether ALB408-423 is able to inhibit CXCL12 mediated tumor cell migration, migration assays were performed using Jurkat T cells expressing CXCR4 as model system (Princen et al., 2004, J.Virol. 78: 12996-13006). Jurkat T cells were suspended at 0.4×106 (200 μl) in medium containing 10% FBS, then the cell suspension (200 μl) was added to the upper compartment of 5 μm pore filter devices (Transwell, 24-well cell culture, Costar). Then, 600?l culture medium with or without CXCL12 (100 ng/ml) was added to the lower compartment allowing attraction of cells from the upper compartment. […] After incubation, plates were removed and 100 μl of cells that migrated to the lower compartment were either counted directly using a counting chamber or analyzed using a proliferation assay (CellTiter-Glo® Reagent, PROMEGA) as recommended by the manufacturer. […]
FIG. 16. […] After 2 hrs incubation at 37° C., the number of migrated cells in the lower compartment was detected by measuring intracellular ATP levels using CellTiter-Glo® Luminescent Cell Viability Assay kit (PROMEGA). […]

LVRYTKKVPQVSTPTL [ALB408-423, LVRYTKKVPQVSTPTL]
mean IC50 over all analyzed X4-tropic HIV-1 variants ([1]; 0.5 ng p24, 3 days, synthetic peptide): 24.2 µg/mL
block of infection by X4 tropic HIV-1 clones (NL4-3, P51-Sc, P34-s) ([1]; 100 μM peptide): almost completely
inhibition of dualtropic HIV-1 clone 92ht593.1 ([2]; 100 μM peptide): only moderately
inhibition of dual tropic variant 92ht593.1 ([2]; serial dilutions, compared with X4 tropic variants): blocked less efficiently
p24 antigen in supernatants (X4 tropic HIV-1 NL4-3): No p24 antigen could be detected
block of CXCL12 induced cell migration [3]: almost completely
